From PMC7861561 (Current Research in Structural Biology, 2020) come the findings set out here.

This assay concerns the target T1, BRPF1 bromodomain (Homo sapiens, UniProt P55201).
T1 sequence (P55201 629-742): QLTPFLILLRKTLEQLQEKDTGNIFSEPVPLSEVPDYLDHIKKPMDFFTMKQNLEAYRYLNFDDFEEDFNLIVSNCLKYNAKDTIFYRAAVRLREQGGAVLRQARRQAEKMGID
The experiment in a line: biochemical. Format: binding. The note with it: SD.

Ends that are not written are not given here.

For orientation: Kd means the constant that tells how readily two partners part at equilibrium. Low values mean a tighter complex, high ones a looser complex. The substance LGKGGAK(Ac)RHRK [H4K16ac (10–20)] returned a Kd of 518 ± 92.1 µM.
